{"source": "patent US20240130937A1", "about": "“ORAL CARE COMPOSITION” (LACER, S.A., priority 2019, published 2024)", "origin": "cited, not measured here", "details": "at 25° C."}
{"compound": "[Cl-].[Cl-].[Zn+2]", "note": "[zinc chloride]", "values": [{"measurement": "solubility in water", "value": 4320, "unit": "mg/mL"}]}
